From PubChem BioAssay (NCI)
Converted amounts (≈) assume the structure as drawn.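 Growth conditions: 96-well plates. Treatment: test compound, 48 hours, 5 concentrations. Analysis: linear interpolation between bracketing concentrations; unreached endpoints set to highest concentration. At the GI50, growth is halved. Definition used: TGI = concentration required for complete inhibition of growth.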 The source made the active and inactive calls. Rule as the data show it: active = GI50 below about 0.43 µM; inactive = the rest.

Tests used:
Experiment in all cases: NCI tumour cell line growth inhibition, 48 h
XF 498 CNS = test system: XF 498 CNS
SN12K1 renal = test system: SN12K1 renal
DMS 273 small cell lung = test system: DMS 273 small cell lung
P388/ADR leukemia = test system: P388/ADR leukemia
P388 leukemia = test system: P388 leukemia
LXFL 529 NSCLC = test system: LXFL 529 NSCLC
RXF-631 renal = test system: RXF-631 renal

Row | Structure (SMILES) | TGI (XF 498 CNS) | TGI (DMS 273 small cell lung) | TGI (P388/ADR leukemia) | TGI (P388 leukemia) | TGI (LXFL 529 NSCLC) | TGI (RXF-631 renal) | other results
1 | COc1cc2c(cc1OC)C(Cc1c3ccccc3cc3ccccc13)N(C)CC2 (configuration not stated) | 38.8 µM | 74.1 µM | 35 µM | 47.6 µM | – | – | TGI (SN12K1 renal): 30.3 µM
2 | S=C(Nc1ccccc1)N1N=C2c3ccccc3CC[C@H]2[C@@H]1c1ccccc1 | > 100 µM | – | – | – | > 100 µM | – | –
3 | Cn1c(=O)c2nc(N3CCCCC3)cnc2n(C)c1=O | > 100 µM | – | – | – | > 100 µM | – | –
4 | CN1OC2OC(=O)OC2[C@H]1[C@H]1O[C@H](c2ccccc2)OC1(C)c1cc(OC(=O)c2ccccc2)ccc1OC(=O)c1ccccc1 (some centres not stated) | > 50 µM | > 50 µM | – | – | > 50 µM | > 50 µM | –
5 | CCNCCCCNCC | > 3750 µM | > 3750 µM | > 3750 µM | > 3750 µM | – | – | TGI (SN12K1 renal): > 3750 µM
6 | CC[C@]12C=CCN3CCC4(c5cc([C@@]6(C(=O)OC)CC7CN(CCc8c6[nH]c6ccccc86)C[C@@H]6CCC[C@H]76)c(OC)cc5N(C)C4[C@](O)(C(=O)OC)C1OC(C)=O)C32 (some centres not stated) | – | – | – | – | > 10 µM | – | –
7 | NC(N)=Nc1nc2ccccc2[nH]1 | – | > 150 µg/mL | 41.5 µg/mL | 20.5 µg/mL | – | – | outcome (XF 498 CNS): inactive; GI50 (SN12K1 renal): 37.6 µg/mL (≈ 215 µM); TGI (SN12K1 renal): > 150 µg/mL; GI50 (DMS 273 small cell lung): 46.4 µg/mL; GI50 (P388/ADR leukemia): 6.34 µg/mL (≈ 36.2 µM); GI50 (P388 leukemia): 4.46 µg/mL (≈ 25.4 µM)
8 | CC1=C2C(O)C(C(C)C(=O)NC(C)C)CCC2(C)C=CC1=O (configuration not stated) | > 100 µM | > 100 µM | > 100 µM | > 100 µM | – | – | TGI (SN12K1 renal): > 100 µM
9 | Cc1cc(N=Nc2ccc(N=Nc3c(O)c(S(=O)(=O)O)cc4cc(S(=O)(=O)O)ccc34)cc2C)ccc1N=Nc1ccc2cc(S(=O)(=O)O)cc(S(=O)(=O)O)c2c1 | > 100 µM | > 100 µM | > 100 µM | > 73.1 µM | – | – | TGI (SN12K1 renal): > 100 µM
10 | O=C(O)CNS(=O)(=O)c1ccc(NC(=O)Nc2ccccc2)cc1 | > 100 µM | > 100 µM | > 100 µM | > 100 µM | – | – | TGI (SN12K1 renal): > 100 µM
11 | N#Cc1c2nc3ccccc3nc2n2ccc3ccccc3c12 | – | > 100 µM | – | – | > 100 µM | – | –
12 | O=c1[nH]c(=O)n(C2CC(O)C(CO)O2)cc1C#Cc1cc(F)cc(F)c1 (configuration not stated) | > 100 µM | > 100 µM | – | – | > 100 µM | > 100 µM | –
13 | COc1cc2c(cc1O)C(C)Cc1cc3c(cc1N(C)CC2)OCO3 (configuration not stated) | 20.4 µM | 13 µM | – | – | > 95.6 µM | > 59 µM | –
14 | Cc1cc(-c2ccccc2)cc2[n+]1CC=C2 | – | > 100 µM | – | – | > 100 µM | – | –
15 | CC1OC(OC2CC(O)(C(=O)CO)Cc3c(O)c4c(c(O)c32)C(=O)c2ccccc2C4=O)CC(N)C1O (configuration not stated) | 0.588 µM | < 0.0278 µM | – | – | 0.347 µM | 0.213 µM | –
16 | CC(C)(O)[C@H](CCO)O[Si](c1ccccc1)(c1ccccc1)C(C)(C)C | 20.7 µM | 24.2 µM | – | – | 23.8 µM | – | –
17 | COc1cc(C=O)c(-c2cc3c(cc2C=O)OCO3)c(OC)c1OC | – | > 290 µM | – | – | > 290 µM | > 290 µM | –
18 | CC1=NN(C(=O)Cc2ccccc2)C(=O)/C1=C\c1ccco1 | > 100 µM | > 100 µM | – | – | – | – | –
19 | COc1cc([C@@H]2c3cc4c(c(O)c3C[C@H]3COC(=O)[C@@H]32)OCO4)cc(OC)c1O | 0.702 µM | – | 0.992 µM | 1.9 µM | 0.00859 µM | – | GI50 (DMS 273 small cell lung): 0.00198 µM
20 | Cc1cc(NCCCCCCNc2cc(C)nc3ccc(Cl)cc23)c2cc(Cl)ccc2n1 | 32 µM | 42.1 µM | – | – | > 100 µM | > 100 µM | –
21 | COC(=O)NN1C(=O)C(=P(c2ccccc2)(c2ccccc2)c2ccccc2)C(C(=O)OC)=C1C | – | > 100 µM | – | – | > 100 µM | > 100 µM | –
22 | COc1ccc([C@@H]2CC(=O)NCCCCNCCCN2)cc1 | > 100 µM | > 100 µM | – | – | > 100 µM | – | –
